From patent publication US12440550B2 (priority 2015, dated 2025) come the findings set out here.

For series [1], the system named is Calu-3 cells. The series is classed as cell-based, human.
Series [2] relates to Calu-3 cells.

Each structure is given as a SMILES string.

`OC[C@@H](O)[C@@H](O)[C@H](O)[C@H](O)CO` [mannitol]: in the series with Calu-3 cells [1], the “increase in transduction efficiency with respect to virus formulated in saline (factor)” value (shortened to “increase in transduction efficiency”) stood at 1.61. Regarding `OC[C@H]1O[C@@](CO)(O[C@H]2O[C@H](CO)[C@@H](O)[C@H](O)[C@H]2O)[C@@H](O[C@H]2O[C@H](CO)[C@@H](O)[C@H](O)[C@H]2O)[C@@H]1O` [melezitose], the “increase in transduction efficiency” value with Calu-3 cells [1] was 1.51.

Consider `CCCCCCCCCCCCO[C@@H]1O[C@H](CO)[C@@H](O[C@H]2O[C@H](CO)[C@@H](O)[C@H](O)[C@H]2O)[C@H](O)[C@H]1O` [nDMPS, N-dodecyl-β-D-maltopyranoside, reference compound], for which, in the series with Calu-3 cells [1], the “increase in transduction efficiency” value is listed as “second most efficacious formulation”. For the same molecule, in the series with Calu-3 cells [2], the cell lysis was > 80%. As to `OC[C@H]1O[C@H](OC[C@H]2O[C@H](O[C@]3(CO)O[C@H](CO)[C@@H](O)[C@@H]3O)[C@H](O)[C@@H](O)[C@@H]2O)[C@H](O)[C@@H](O)[C@H]1O` [raffinose], the “increase in transduction efficiency” value in the series with Calu-3 cells [1] is “did not significantly enhance transduction”. As to `OC[C@@H](O)[C@@H](O)[C@H](O)[C@@H](O)CO` [sorbitol], in the series on Calu-3 cells [1], the “increase in transduction efficiency” value is on record as “did not significantly enhance transduction”.

With `OC[C@H]1O[C@@](CO)(O[C@H]2O[C@H](CO)[C@@H](O)[C@H](O)[C@H]2O)[C@@H](O)[C@@H]1O` [sucrose], the “increase in transduction efficiency” value in the series with Calu-3 cells [1] came out at 1.96.
